The values that follow come from patent US20240075049A1 (priority 2020, published 2024).

Series [1] in a line: adverse reaction in a treated coronavirus patient. The series is classed as in vivo, human. To be noted: person, doxycycline 100 mg bd added to amantadine, ivermectin, zinc. The procedure: A front-line worker and was diagnosed with coronavirus in association with fevers, aches and fatigue. They are commenced on amantadine orally using the standard capsule of […] once daily for ten days. […] They developed a rash to the doxycycline when added and this was changed to azithromycin 250 mg bd for the duration of the ten-day course.

Series [2] is described as follows: ivermectin toxicity at high doses, relation to LD50. The series is classed as in vivo. The following applies: 2000 mcg/kg (120 mg in a 60 kg adult).
For series [3] the following is noted: in vivo; cited from earlier work.
For series [4] the following is noted: more than 200 mcg/kg (12 mg), 2000 mcg/kg (120 mg) and above; cited from earlier work.
The conditions of series [5]: in vivo; cited from earlier work. This is another data set of the same source.

For orientation: half-life means how long it takes for the measured level to halve.

Consider `C[C@H]1c2cccc(O)c2C(=O)C2=C(O)[C@]3(O)C(=O)C(C(N)=O)=C(O)[C@@H](N(C)C)[C@@H]3[C@@H](O)[C@@H]21` [doxycycline], for which the adverse reaction entry in series [1] is on record as “rash”.
Take ivermectin: in series [2], the “dose as percentage of the LD50” value was found to be 7%. For the same molecule, the excretion entry in series [3] was “mostly in the feces”. The “toxicity at doses above the accepted therapeutic dose” value in series [4] is “without any increase in ivermectin toxicity”.
On to `CCN(CCO)CCCC(C)Nc1ccnc2cc(Cl)ccc12` (centres unmarked) [hydroxychloroquine], for which the half-life in series [5] is on record as 40 days.
